From US20250108062A1, “VITAMIN NANOCLUSTERS AS THERAPEUTIC AND NUTRACEUTIC AGENTS AND CARRIERS” (FONDAZIONE ISTITUTO ITALIANO DI TECNOLOGIA, priority 2022, published 2025)

Test system: Bone Marrow Derived Monocytes (BMDM)
Test: MTT cell viability / toxicity on BMDMs
Conditions: 24, 48, 72 h, all tested concentrations
Experimental: After 24, 48, or 72 h of incubation, the culture medium was removed, a MTT solution was added to each well according to the manufacturer's instruction. The absorbance of formazan crystals dissolved in EtOH was quantified using a microplate spectrophotometer at a wavelength of 570 nm, using 650 nm as the reference wavelength (Tecan, Mannedorf, Swiss). The percentage of cell viability was assessed according to the following equation:
where, Abst was the absorbance of treated cells and Abs, was the absorbance of control (untreated) cells.

C=C1CC[C@H](O)C/C1=C/C=C1\CCC[C@]2(C)[C@@H]([C@H](C)CCCC(C)C)CC[C@@H]12 [free Vitamin D3, Vitamin D3]
cytotoxicity (MTT cell viability): do not induce a significant cytotoxicity
